Measured values as given in US11957695B2, “Methods and compositions targeting glucocorticoid signaling for modulating immune responses” (The Broad Institute, Inc., priority 2018, dated 2024).
“And” between values parts separate entries of the source, which are not always exact repeats. Equal values may be shown once.

T1: glucocorticoid receptor (GR) (Homo sapiens, UniProt P04150)
T1 sequence (P04150 1-777): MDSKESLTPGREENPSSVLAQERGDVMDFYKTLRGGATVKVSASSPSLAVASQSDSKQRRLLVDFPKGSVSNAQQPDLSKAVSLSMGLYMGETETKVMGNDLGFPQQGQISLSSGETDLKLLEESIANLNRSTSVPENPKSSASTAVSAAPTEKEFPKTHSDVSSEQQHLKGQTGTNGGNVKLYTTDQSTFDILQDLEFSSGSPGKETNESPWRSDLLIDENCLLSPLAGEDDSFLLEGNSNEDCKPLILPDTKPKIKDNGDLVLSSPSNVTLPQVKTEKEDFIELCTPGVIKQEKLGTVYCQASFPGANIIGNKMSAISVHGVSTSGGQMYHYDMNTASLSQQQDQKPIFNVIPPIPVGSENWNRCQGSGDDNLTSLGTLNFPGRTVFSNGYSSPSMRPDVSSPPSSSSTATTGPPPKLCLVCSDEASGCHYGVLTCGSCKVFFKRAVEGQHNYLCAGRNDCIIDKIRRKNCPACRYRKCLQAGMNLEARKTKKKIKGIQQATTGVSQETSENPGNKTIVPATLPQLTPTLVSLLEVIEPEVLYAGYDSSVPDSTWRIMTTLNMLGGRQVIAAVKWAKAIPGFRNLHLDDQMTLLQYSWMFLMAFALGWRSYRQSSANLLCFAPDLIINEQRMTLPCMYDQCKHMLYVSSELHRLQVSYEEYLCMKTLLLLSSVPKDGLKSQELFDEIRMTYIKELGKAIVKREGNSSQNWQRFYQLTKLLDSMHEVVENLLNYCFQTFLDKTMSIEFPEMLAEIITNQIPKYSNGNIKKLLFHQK

B1: IL-27: heterodimeric cytokine and a member of the IL-12 family of cytokines that is produced by antigen presenting cells (protein, UniProt Q8NEV9 29-243; Q14213 21-229, looked up)
Interleukin-27 subunit alpha: FPRPPGRPQLSLQELRREFTVSLHLARKLLSEVRGQAHRFAESHLPGVNLYLLPLGEQLPDVSLTFQAWRRLSDPERLCFISTTLQPFHALLGGLGTQGRWTNMERMQLWAMRLDLRDLQRHLRFQVLAAGFNLPEEEEEEEEEEEEERKGLLPGALGSALQGPAQVSWPQLLSTYRLLHSLELVLSRAVRELLLLSKAGHSVWPLGFPTLSPQP
Interleukin-27 subunit beta: RKGPPAALTLPRVQCRASRYPIAVDCSWTLPPAPNSTSPVSFIATYRLGMAARGHSWPCLQQTPTSTSCTITDVQLFSMAPYVLNVTAVHPWGSSSSFVPFITEHIIKPDPPEGVRLSPLAERQLQVQWEPPGSWPFPEIFSLKYWIRYKRQGAARFHRVGPIEATSFILRAVRPRARYYVQVAAQDLTDYGELSDWSLPATATMSLGK

What was measured:
[1] = target: T1, glucocorticoid receptor (GR); conditions: cited from earlier work
[2] = in vivo; cited from earlier work
[3] = test system: Naïve CD8+ T cells; test: RNA-Seq of naïve CD8+ T cells cultured with anti CD3/28 in the presence of Dex (GC), IL-27 or GC+IL-27 (Tables 1, 2A, 2B, 5-7); format: cell-based, mouse
Procedure: (§1) Cell culture and treatment with glucocorticoid. CD8^+ T cells from splenocytes and lymph nodes were isolated using CD8 microbeads (Miltenyi). Cells were further stained with antibodies against CD8, CD62L and CD44, and CD8^+CD62L^hiCD44^lo naive cells were sorted by BD FacsAria (BD Biosciences). Sorted cells were cultured for 9 days as described below in DMEM supplemented with 10% (vol/vol) FCS, […], 1 mM sodium pyruvate, nonessential amino acids, L-glutamine, and 100 U/ml penicillin and 100 µg/ml streptomycin.
RNA-Seq data pre-processing. […] Heatmap figures were generated using pheatmap package^53.
Analysis of additive and non-additive effects. To test whether the glucocorticoid and IL-27 signaling pathways had additive or non-additive effects on gene expression, Applicants stimulated naïve CD8^+ T cells in the presence of Dex, IL-27, or Dex+IL-27 in vitro. Applicants tested for non-additive effects between IL-27 and glucocorticoid signaling using a negative binomial generalized linear model in order to account for both estimations of the mean and the dispersion across conditions, where dispersion describes the relationship between the mean and variance. The model was applied to the expression data using ANOVA between a model that takes into account the interaction between IL27 and Dex versus no interaction.

[4] = test system: Naïve CD8+ T cells; test: Quantitative RT-PCR of Prdm1, Nfil3 and Tcf7 in Ctrl, GC, IL-27 or GC+IL-27 treated cells; format: cell-based, mouse
Procedure: as §1
Quantitative PCR. Total RNA was extracted using RNeasy columns (Qiagen). Reverse transcription of mRNA was performed in a thermal cycler (Bio-Rad) using iScript cDNA Synthesis Kit (Bio-Rad). qPCR was performed in the Vii7 Real-Time PCR system (Applied Biosystems) using the primers for Taqman gene expression (Applied Biosystems). Data were normalized to the expression of Actb.

Molecule | Glucocorticoid potency [1] | Terminal half-life [2] | further results
C[C@]12CCC(=O)C=C1CC[C@@H]1[C@@H]2[C@@H](O)C[C@@]2(C)[C@H]1CC[C@]2(O)C(=O)CO [Cortisol (hydrocortisone), Cortisol] | 1 |  | 
C[C@]12CCC(=O)C=C1CC[C@@H]1[C@@H]2C(=O)C[C@@]2(C)[C@H]1CC[C@]2(O)C(=O)CO [Cortisone] | 0.8 |  | 
CC(=O)OCC(=O)[C@H]1CC[C@H]2[C@@H]3CCC4=CC(=O)CC[C@]4(C)[C@H]3CC[C@]12C [Deoxycorticosterone acetate] | 0 |  | 
C[C@H]1C[C@@H]2[C@H]([C@@H](O)C[C@@]3(C)[C@H]2CC[C@]3(O)C(=O)CO)[C@@]2(C)C=CC(=O)C=C12 [Methylprednisolone] |  | 18 to 40 h | 
C[C@]12C=CC(=O)C=C1CC[C@@H]1[C@@H]2[C@@H](O)C[C@@]2(C)[C@H]1CC[C@]2(O)C(=O)CO [Prednisolone] | 4 | 16 to 36 h | 
C[C@]12C=CC(=O)C=C1CC[C@@H]1[C@@H]2C(=O)C[C@@]2(C)[C@H]1CC[C@]2(O)C(=O)CO [Prednisone] |  | 16 to 36 h | 
C[C@]12C=CC(=O)C=C1CC[C@H]1[C@@H]3C[C@@H](O)[C@](O)(C(=O)CO)[C@@]3(C)C[C@H](O)[C@@]12F [Triamcinolone] | 5 | 12 to 36 h | 
B1 |  |  | transcriptional state of stimulated CD8+ T cells ([3]; FIG. 12): transcriptionally distinct; Tcf7 expression levels ([3]; three values per treatment, control cells 9.93, 8.28, 11.45): 5.37 and 7.39 and 5.57; Nupr1 expression levels ([3]; three values per treatment, control cells 12.77, 13.57, 13.47): 11.93 and 21.86 and 19.79; CD28 expression levels ([3]; three values per treatment, control cells 19.54, 18.14, 18.29): 48.93 and 37.2 and 39.84; Lilrb4 expression levels ([3]; three values per treatment, control cells 87.12, 92.82, 96.51): 73.62 and 94.25 and 105.87; Tcf7 expression (qPCR) [4]: dramatically reduced
